Source: ChEMBL document CHEMBL1140893, “Cancer preventive agents. Part 8: Chemopreventive effects of stevioside and related compounds” (Bioorg Med Chem, 2009)

How the values were obtained:
[1] = Cytotoxicity against human Raji cells assessed as cell viability at 1000 mol ratio by trypan blue staining; assay type: cell-based; conditions: read-out: Activity
[2] = Cytotoxicity against human Raji cells assessed as cell viability at 500 mol ratio by trypan blue staining; assay type: cell-based; conditions: read-out: Activity
[3] = Cytotoxicity against human Raji cells assessed as cell viability at 100 mol ratio by trypan blue staining; assay type: cell-based; conditions: read-out: Activity
[4] = Cytotoxicity against human Raji cells assessed as cell viability at 10 mol ratio by trypan blue staining; assay type: cell-based; conditions: read-out: Activity
Raji [5] = experiment: Inhibition of TPA-induced EBV-early antigen activation in human Raji cells at 1000 mol ratio after 48hrs by indirect immunofluorescence technique relative to control; assay type: cell-based; parameters: scale not given: the % may be the effect or the level left; conditions: human gammaherpesvirus 4
Raji [6] = experiment: Inhibition of TPA-induced EBV-early antigen activation in human Raji cells at 500 mol ratio after 48hrs by indirect immunofluorescence technique relative to control; assay type: cell-based; parameters: scale not given: the % may be the effect or the level left; conditions: human gammaherpesvirus 4
Raji [7] = experiment: Inhibition of TPA-induced EBV-early antigen activation in human Raji cells at 100 mol ratio after 48hrs by indirect immunofluorescence technique relative to control; assay type: cell-based; parameters: scale not given: the % may be the effect or the level left; conditions: human gammaherpesvirus 4
Raji [8] = experiment: Inhibition of TPA-induced EBV-early antigen activation in human Raji cells at 10 mol ratio after 48hrs by indirect immunofluorescence technique relative to control; assay type: cell-based; parameters: scale not given: the % may be the effect or the level left; conditions: human gammaherpesvirus 4
[9] = Inhibition of TPA-induced EBV-early antigen activation in human Raji cells after 48hrs by indirect immunofluorescence technique; assay type: cell-based, human gammaherpesvirus 4
Mus musculus [10] = experiment: Inhibition of DMBA-induced/TPA-promoted carcinogenesis in mouse assessed as reduction in skin papillomas bearing mouse at 85 nmol administered 1 hr before TPA treatment measured after 15 weeks; assay type: functional; parameters: scale not given: the % may be the effect or the level left
Mus musculus [11] = experiment: Inhibition of DMBA-induced/TPA-promoted carcinogenesis in mouse assessed as reduction in skin papillomas bearing mouse at 85 nmol administered 1 hr before TPA treatment measured after 20 weeks; assay type: functional, organism-based; parameters: Activity: scale not given: the % may be the effect or the level left
Mus musculus [12] = experiment: Inhibition of DMBA-induced/TPA-promoted carcinogenesis in mouse assessed as number of skin papillomas per mouse at 85 nmol administered 1 hr before TPA treatment measured after 10 weeks; assay type: functional
Mus musculus [13] = experiment: Inhibition of DMBA-induced/TPA-promoted carcinogenesis in mouse assessed as number of skin papillomas per mouse at 85 nmol administered 1 hr before TPA treatment measured after 15 weeks; assay type: functional
Mus musculus [14] = experiment: Inhibition of DMBA-induced/TPA-promoted carcinogenesis in mouse assessed as number of skin papillomas per mouse at 85 nmol administered 1 hr before TPA treatment measured after 20 weeks; assay type: functional
Mus musculus [15] = experiment: Inhibition of DMBA-induced/TPA-promoted carcinogenesis in mouse assessed as reduction in skin papillomas bearing mouse at 85 nmol administered 1 hr before TPA treatment measured after 10 weeks; assay type: functional; parameters: scale not given: the % may be the effect or the level left
Mus musculus [16] = experiment: Inhibition of DMBA-induced/TPA-promoted carcinogenesis in mouse assessed as reduction in skin papillomas bearing mouse at 85 nmol administered 1 hr before TPA treatment measured after 9 weeks; assay type: functional; parameters: scale not given: the % may be the effect or the level left
Mus musculus [17] = experiment: Inhibition of peroxynitrite-induced/TPA-promoted carcinogenesis in Sencar mouse assessed as reduction in skin papillomas bearing mouse at 85 nmol administered 1 hr before TPA treatment measured after 11 weeks; assay type: functional; parameters: scale not given: the % may be the effect or the level left
Mus musculus [18] = experiment: Inhibition of peroxynitrite-induced/TPA-promoted carcinogenesis in Sencar mouse assessed as reduction in skin papillomas bearing mouse at 85 nmol administered 1 hr before TPA treatment measured after 15 weeks; assay type: functional; parameters: scale not given: the % may be the effect or the level left
Mus musculus [19] = experiment: Inhibition of peroxynitrite-induced/TPA-promoted carcinogenesis in Sencar mouse assessed as reduction in skin papillomas bearing mouse at 85 nmol administered 1 hr before TPA treatment measured after 20 weeks; assay type: functional; parameters: scale not given: the % may be the effect or the level left
Mus musculus [20] = experiment: Inhibition of peroxynitrite-induced/TPA-promoted carcinogenesis in Sencar mouse assessed as number of skin papillomas per mouse at 85 nmol administered 1 hr before TPA treatment measured after 11 weeks; assay type: functional
Mus musculus [21] = experiment: Inhibition of peroxynitrite-induced/TPA-promoted carcinogenesis in Sencar mouse assessed as number of skin papillomas per mouse at 85 nmol administered 1 hr before TPA treatment measured after 15 weeks; assay type: functional
Mus musculus [22] = experiment: Inhibition of peroxynitrite-induced/TPA-promoted carcinogenesis in Sencar mouse assessed as number of skin papillomas per mouse at 85 nmol administered 1 hr before TPA treatment measured after 20 weeks; assay type: functional
Mus musculus [23] = organism: Mus musculus; experiment: Reduction in peroxynitrite-induced/TPA-promoted number of skin papillomas in Sencar mouse after 20 weeks; assay type: functional; parameters: scale not given: the % may be the effect or the level left
Mus musculus [24] = experiment: Inhibition of peroxynitrite-induced/TPA-promoted carcinogenesis in Sencar mouse assessed as number of skin papillomas per mouse at 85 nmol administered 1 hr before TPA treatment measured after 10 weeks; assay type: functional
Mus musculus [25] = experiment: Inhibition of peroxynitrite-induced/TPA-promoted carcinogenesis in Sencar mouse assessed as reduction in skin papillomas bearing mouse at 85 nmol administered 1 hr before TPA treatment measured after 10 weeks; assay type: functional; parameters: scale not given: the % may be the effect or the level left

| SMILES | viability at 1000 mol ratio [1] | viability at 500 mol ratio [2] | viability at 100 mol ratio [3] | viability at 10 mol ratio [4] | Activity (Raji [5]) | Activity (Raji [6]) | Activity (Raji [7]) | Activity (Raji [8]) | IC50 [9] | Activity (Mus musculus [10]) | Activity (Mus musculus [11]) | Activity (Mus musculus [12]) | Activity (Mus musculus [13]) | Activity (Mus musculus [14]) | Activity (Mus musculus [15]) | Activity (Mus musculus [18]) | Activity (Mus musculus [19]) | Activity (Mus musculus [21]) | Activity (Mus musculus [22]) | Activity (Mus musculus [23]) | further results |
| --- | --- | --- | --- | --- | --- | --- | --- | --- | --- | --- | --- | --- | --- | --- | --- | --- | --- | --- | --- | --- | --- |
| C=C1C[C@@]23CC[C@H]4[C@@](C)(CCC[C@@]4(C)C(=O)O[C@@H]4O[C@H](CO)[C@@H](O)[C@H](O)[C@H]4O)[C@@H]2CC[C@]1(O[C@@H]1O[C@H](CO)[C@@H](O)[C@H](O[C@@H]2O[C@H](CO)[C@@H](O)[C@H](O)[C@H]2O)[C@H]1O[C@@H]1O[C@@H](C)[C@H](O)[C@@H](O)[C@H]1O)C3 [REBAUDIOSIDE C] | 60% | > 80% | > 80% | > 80% |  |  |  |  |  |  |  |  |  |  |  |  |  |  |  |  |  |
| CC1(C)[C@@H](O[C@H]2O[C@H](C(=O)O)[C@@H](O)[C@H](O)[C@H]2O[C@@H]2O[C@H](C(=O)O)[C@@H](O)[C@H](O)[C@H]2O)CC[C@]2(C)[C@H]3C(=O)C=C4[C@@H]5C[C@@](C)(C(=O)O)CC[C@]5(C)CC[C@@]4(C)[C@]3(C)CC[C@@H]12 [GLYCYRRHIZIN] | 60% | > 80% | > 80% | > 80% | 12.5% | 36.9% | 69.2% | 100% | 381 mol ratio/32 pmol TPA | 60% | 94% | 2.8 | 4.6 | 6.2 | 50% |  |  |  |  |  |  |
| C=C1C[C@@]23CC[C@H]4[C@@](C)(CCC[C@@]4(C)C(=O)O[C@@H]4O[C@H](CO)[C@@H](O)[C@H](O)[C@H]4O)[C@@H]2CC[C@]1(O[C@@H]1O[C@H](CO)[C@@H](O)[C@H](O[C@@H]2O[C@H](CO)[C@@H](O)[C@H](O)[C@H]2O)[C@H]1O[C@@H]1O[C@H](CO)[C@@H](O)[C@H](O)[C@H]1O)C3 [REBAUDIOSIDE A] | 60% | > 80% | > 80% | > 80% |  |  |  |  |  |  |  |  |  |  |  |  |  |  |  |  |  |
| C=C1C[C@@]23CC[C@H]4[C@@](C)(CCC[C@@]4(C)C(=O)O[C@@H]4O[C@H](CO)[C@@H](O)[C@H](O)[C@H]4O)[C@@H]2CC[C@]1(O[C@@H]1O[C@H](CO)[C@@H](O)[C@H](O)[C@H]1O)C3 [RUBUSOSIDE] | 60% | > 80% | > 80% | > 80% | 12.5% | 44.2% | 76.8% | 94.2% | 450 mol ratio/32 pmol TPA |  |  |  |  |  |  |  |  |  |  |  |  |
| C=C1C[C@@]23CC[C@H]4[C@@](C)(CCC[C@@]4(C)C(=O)O[C@@H]4O[C@H](CO)[C@@H](O)[C@H](O)[C@H]4O)[C@@H]2CC[C@]1(O[C@@H]1O[C@H](CO)[C@@H](O)[C@H](O)[C@H]1O[C@@H]1O[C@H](CO)[C@@H](O)[C@H](O)[C@H]1O)C3 [STEVIOSIDE] |  | > 80% | > 80% | > 80% | 3.2% | 36.9% | 67.4% | 89.3% | 360 mol ratio/32 pmol TPA | 53% | 93% |  |  |  |  | 53% | 87% | 3 | 4.4 | 45% | Activity (Mus musculus [16]): 20%; Activity (Mus musculus [17]): 40%; Activity (Mus musculus [20]): 2 |
| C[C@@]12CC[C@@H]3[C@@](CC[C@H]4[C@@]3(C)CCC[C@@]4(C)C(=O)O)(CC1=O)C2 [ISOSTEVIOL] |  | > 80% | > 80% | > 80% | 1.9% | 34.2% | 73% | 90.6% | 321 mol ratio/32 pmol TPA | 60% |  | 1.8 | 3.6 | 5 | 20% | 53% | 73% | 2.7 | 4.3 | 46.2% | Activity % (Mus musculus [11]): 87%; Activity (Mus musculus [17]): 33%; Activity (Mus musculus [24]): 1.6 |
| COc1cc(/C=C/C(=O)CC(=O)/C=C/c2ccc(O)c(OC)c2)ccc1O [CURCUMIN] | 60% | > 80% | > 80% | > 80% | 0% | 22.8% | 81.7% | 100% | 331 mol ratio/32 pmol TPA |  |  |  |  |  |  |  |  |  |  | 45.1% |  |
| C=C1C[C@@]23CC[C@H]4[C@@](C)(CCC[C@@]4(C)C(=O)O[C@@H]4O[C@H](CO)[C@@H](O)[C@H](O)[C@H]4O)[C@@H]2CC[C@]1(O[C@@H]1O[C@H](C)[C@@H](O)[C@H](O)[C@@H]1O[C@@H]1O[C@H](CO)[C@@H](O)[C@H](O)[C@H]1O)C3 [DULCOSIDE A] |  |  |  |  | 6.7% | 40.9% | 73% | 92.5% |  |  |  |  |  |  |  |  |  |  |  |  |  |
| C=C1C[C@@]23CC[C@H]4[C@@](C)(CCC[C@@]4(C)C(=O)O)[C@@H]2CC[C@]1(O)C3 [STEVIOL] | 60% | > 80% | > 80% | > 80% | 2.1% | 35.6% | 74.1% | 91.2% | 340 mol ratio/32 pmol TPA | 60% | 87% | 1.8 | 3.7 | 5.4 | 27% | 67% | 93% | 3.5 | 4.5 | 44.4% | Activity (Mus musculus [24]): 2.3; Activity (Mus musculus [25]): 27% |
